Measured values reported in EP2966448B1, “METHOD FOR THE PREDICTION OR PROGNOSIS OF THE RESPONSE OF A HUMAN SUBJECT SUFFERING FROM CANCER TO TREATMENT WITH AN ANTAGONIST OF THE NK1 RECEPTOR” (priority 2013, dated 2014).
Like-named read-outs stand apart in the source and are kept apart here.

Columns and labels:
[1] = tested on: Renal cell carcinoma; assay: Inhibition of primary tumor cell cultures (48 hours) vs NK1 receptor immunostaining (Example 1); assay type: cell-based; details: Homo sapiens, 1 micromolar, read-out: Percentage of inhibition of cell cultures
Procedure: (§1) Cell cultures. To obtain tumor cells from human primary tumors we used the method described in De Bari et al. (De Bari et al. 2001). Briefly, small pieces of the tumors were digested into a hyaluronidase solution (Sigma-Aldrich, USA) at a concentration of 1 mg/ml during 15 minutes at 37°C, and then they were treated with 6 mg/ml of collagenase type IV (Invitrogen) during 2 hours at 37°C. Consecutively, cells were washed, and resuspended in the DMEM culture medium with high concentration of glucose (Dulbecco's Modified Eagle's Medium, Invitrogen) supplemented with 1% of antibiotics-antimycotics (Invitrogen) and with 1% of sodium pyruvate (Invitrogen), and the cells were seeded in culture slides at a concentration of 10.000 cells per square centimeter. When cells reached confluence, the adherent cells were separated using sterile trypsin at 0,5% (Invitrogen) and they were used among passages 3 and 9. For the assays shown next, tumor cells were seeded on slides at a concentration of 25.000 cells per well. A total of 6 wells containing the tumor cells were used as survival control. […] All the cultures were kept during 48 hours and later on recollected for their analysis.
(§2) Immunohistochemistry techniques. The presence of NK1 receptors was also analyzed using immunohistochemistry techniques. Briefly, a sample of each of the cultures of the cell lines used in the present invention, was centrifuged (5 minutes at 1.500 rpm) and the pellet obtained was dehydrated using increasing concentrations of ethanol and, finally, xylol. Then, said dehydrated samples were embedded in paraffin, creating a block of cells. Such paraffin blocks were cut with a microtome at 5 microns thickness, and were placed on microscope slides adequate to perform immunohistochemistry techniques. Consecutively, they were de-paraffinized by immersing them in xylol, to be finally hydrated using a solution containing decreasing concentrations of ethanol, and finally submerged them into water. […] After this, the samples were left to cool down at room temperature for 10 minutes. The endogenous peroxidase activity was blocked with 3% peroxide of hydrogen for 30 minutes at room temperature. After washing the samples with 0.05 M of Tris buffer, they were incubated with 10% non-immune pork serum at for 30 minutes at room temperature. To analyze the expression of NK1 receptors, the cellular samples were incubated in the presence of anti-NK1 antibodies (S8305, Sigma-Aldrich) diluted 1:1000, overnight at 4°C. Afterwards, the samples were washed in Tris buffer 0.05 M at room temperature. The next step was the addition of Envision System-HRP (Dako) reagents for 30 minutes at room temperature. Then, the samples were washed again in Tris buffer 0.05 M and the immunoreactivity was visualized through light microscopy with a chromogenic solution containing 3,3'-Diaminobenzidine (DAB+; Dako, USA). To differentiate the cell nuclei, they were slightly stained with hematoxylin. As negative control, it was used samples not incubated with the primary antibody anti-NK1, which was replaced by non-immune serum. All the samples were evaluated.
(§3) To value the immunostaining in each of the cases six cuts were performed to be analyzed by the immunohistochemistry technique. In each of the six cuts, it was counted cells in 20 fields (magnification 400x) using an Olympus microscope (model CX31). In each field it was counted the total number of cells and the number of cells presenting immunostaining, calculating afterwards the percentage of cells which presented immunostaining.

[2] = tested on: Glioma; assay: as above; assay type: cell-based; details: Homo sapiens, 1 micromolar, read-out: Percentage of inhibition of cell cultures
Procedure: as §1, §2, §3

[3] = tested on: Leukemia B; assay: as above; assay type: cell-based; details: Homo sapiens, 1 micromolar, read-out: Percentage of inhibition of cell cultures
Procedure: as §1, §2, §3

[4] = tested on: Thyroid carcinoma (papillary type); assay: as above; assay type: cell-based; details: Homo sapiens, 1 micromolar, read-out: Percentage of inhibition of cell cultures
Procedure: as §1, §2, §3

[5] = tested on: Non Hodgkin Lymphoma B (diffuse B cell lymphoma); assay: Inhibition of primary tumor cell cultures vs Kras mutation (Example 2); assay type: cell-based, human; details: Non Hodgkin Lymphoma B (diffuse B cell lymphoma), 100 micromolar
Procedure: as §1
(§4) In each case the presence or not of mutations in K-ras gene was determined.
(§5) To determine the existence of mutations in the K-ras gene DNA from cancer tumor cells was extracted from samples obtained from the different cancer tumor cells, using DNA extraction kits from Takara (Madison, WI, US) or Ambion (Huntingdon, Cambridgeshire, United Kingdom), following the manufacturer's instructions, and as it has been previously published (Di Fiore F, et al. 2007). Consecutively it was analyzed by sequencing the exon 2 of the KRAS gene, , by means of PCR amplification from previously extracted cancer tumor DNA, using the following sense primer (SEQ ID NO. 15): 5'-[sequence]-3' and anti-sense primer (SEQ ID NO. 16): 5'-[sequence]-3'. After the purification using the Qiagen extraction kit, the PCR products were sequenced using the Big Dye Terminator Kit V3.1 (Applied Biosystems, Foster City, CA, U.S.) and an ABI Prism 377 or 3100 DNA sequencer (Applied Biosystems). The presence of a heterozygous mutation in the KRAS gene in cancer tumor cells of the cultures was defined as the appearance of a mutant peak of a height of at least a third of the wild type. All the sequence analysis were executed at least twice in two independent PCR.
(§6) The percentages of inhibition are expressed in percentage of variation in relation to control ± standard deviation.

[6] = tested on: Melanoma (Nodular Melanoma); assay: as above; assay type: cell-based, human; details: Melanoma (Nodular Melanoma), 100 micromolar
Procedure: as §1, §4, §5, §6

[7] = tested on: Ovarian carcinoma (Adenocarcinoma); assay: as above; assay type: cell-based, human; details: Ovarian carcinoma (Adenocarcinoma), 100 micromolar
Procedure: (§7) Cell cultures. […] Briefly, small pieces of the tumors were digested into a hyaluronidase solution (Sigma-Aldrich, USA) at a concentration of 1 mg/ml during 15 minutes at 37°C, and then they were treated with 6 mg/ml of collagenase type IV (Invitrogen) during 2 hours at 37°C. Consecutively, cells were washed, and resuspended in the DMEM culture medium with high concentration of glucose (Dulbecco's Modified Eagle's Medium, Invitrogen) supplemented with 1% of antibiotics-antimycotics (Invitrogen) and with 1% of sodium pyruvate (Invitrogen), and the cells were seeded in culture slides at a concentration of 10.000 cells per square centimeter. When cells reached confluence, the adherent cells were separated using sterile trypsin at 0,5% (Invitrogen) and they were used among passages 3 and 9. For the assays shown next, tumor cells were seeded on slides at a concentration of 25.000 cells per well. A total of 6 wells containing the tumor cells were used as survival control. […] All the cultures were kept during 48 hours and later on recollected for their analysis.
as §4, §5
(§8) The antibody against NK1 receptor (Table 16) was used at 1/50 concentration. The percentages of inhibition are expressed in percentage of variation in relation to control ± standard deviation.

[8] = tested on: human primary tumor cells; assay: Inhibition of primary tumor cell cultures vs absence or presence of AKT protein (Example 4; tumor type per table line); assay type: cell-based; details: cancer cell cultures showing more presence of AKT, compared; non-peptidic antagonists 100 micromolar, antibody 1/50
Procedure: as §7
Afterwards, the cells were cultured in presence of several antagonists of the NK1 receptor.
In each case it was determined the presence or absence of the AKT protein effector downstream in the PI3 Kinases pathway.
To determine the presence of the AKT protein in the different cultures Western Blot technique was performed (following the description in example 1-Western Blot section), but using as primary antibody with reference: Akt (pan) (11E7) Rabbit mAb (4685, Cell Signalling).
The antibody against NK1 receptor (Table 26) was used at 1/50 concentration. The percentages of inhibition are expressed in percentage of variation in relation to control ± standard deviation.

[9] = tested on: Thyroid carcinoma (folliculary type); assay: Inhibition of primary tumor cell cultures (48 hours) vs NK1 receptor immunostaining (Example 1); assay type: cell-based; details: Homo sapiens, 1 micromolar, read-out: Percentage of inhibition of cell cultures
Procedure: as §1, §2, §3

[10] = tested on: Ewing Sarcoma; assay: as above; assay type: cell-based; details: Homo sapiens, 1 micromolar, read-out: Percentage of inhibition of cell cultures
Procedure: as §1, §2, §3

[11] = tested on: Non Hodgkin Lymphoma T; assay: as above; assay type: cell-based; details: Homo sapiens, 1 micromolar, read-out: Percentage of inhibition of cell cultures
Procedure: as §1, §2, §3

[12] = tested on: Hodgkin lymphoma; assay: as above; assay type: cell-based; details: Homo sapiens, 1 micromolar, read-out: Percentage of inhibition of cell cultures
Procedure: as §1, §2, §3

[13] = tested on: Endometrium carcinoma; assay: Inhibition of primary tumor cell cultures vs Kras mutation (Example 2); assay type: cell-based, human; details: Endometrium carcinoma, 100 micromolar
Procedure: as §7, §4, §5, §8

[14] = tested on: Prostate carcinoma; assay: as above; assay type: cell-based, human; details: Prostate carcinoma, 100 micromolar
Procedure: as §1, §4, §5, §6

[15] = NK1 receptor immunostaining Group 1 (less than 20% of the cells)
[16] = NK1 receptor immunostaining Group 2 (20-80% of the cells)
[17] = NK1 receptor immunostaining Group 3 (more than 80% of the cells)
[18] = NK1 receptor immunostaining Intensity grade 1
[19] = NK1 receptor immunostaining Intensity grade 2
[20] = NK1 receptor immunostaining Intensity grade 3
[21] = Cases with Kras non-mutated (wild type)

Structure (SMILES): Cc1cc(F)ccc1[C@H]1CNCCN1C(=O)N(C)[C@H](C)c1cc(C(F)(F)F)cc(C(F)(F)F)c1 [Vestipitant]
- inhibition at 1 µM [1, 15]: 10 ± 4%
- inhibition at 1 µM [1, 16]: 45 ± 3%
- inhibition at 1 µM [1, 17]: 93 ± 6%
- inhibition at 1 µM [1, 18]: 21 ± 3%
- inhibition at 1 µM [1, 19]: 46 ± 4%
- inhibition at 1 µM [1, 20]: 93 ± 4%
- inhibition at 1 µM [2, 15]: 15 ± 4%
- inhibition at 1 µM [2, 16]: 45 ± 4%
- inhibition at 1 µM [2, 17]: 92 ± 4%
- inhibition at 1 µM [2, 18]: 19 ± 3%
- inhibition at 1 µM [2, 19]: 48 ± 5%
- inhibition at 1 µM [2, 20]: 92 ± 3%
- inhibition at 1 µM [3, 15]: 16 ± 5%
- inhibition at 1 µM [3, 16]: 47 ± 5%
- inhibition at 1 µM [3, 17]: 92 ± 5%
- inhibition at 1 µM [3, 18]: 17 ± 2%
- inhibition at 1 µM [3, 19]: 47 ± 3%
- inhibition at 1 µM [3, 20]: 92 ± 4%
- inhibition at 1 µM [4, 15]: 15 ± 3%
- inhibition at 1 µM [4, 16]: 47 ± 5%
- inhibition at 1 µM [4, 17]: 96 ± 4%
- inhibition at 1 µM [4, 18]: 16 ± 2%
- inhibition at 1 µM [4, 19]: 47 ± 5%
- inhibition at 1 µM [4, 20]: 96 ± 5%
- Percentage of inhibition of cell cultures ([5]; Cases with Kras mutated): 24±4 percentage
- Percentage of inhibition of cell cultures [5, 21]: 97±6 percentage
- Percentage of inhibition of cell cultures ([6]; Cases with Kras mutated): 23±5 percentage
- Percentage of inhibition of cell cultures [6, 21]: 96±5 percentage
- Percentage of inhibition of cell cultures ([7]; Cases with Kras mutated): 27±5 percentage
- Percentage of inhibition of cell cultures [7, 21]: 96±6 percentage
- inhibition of cell proliferation [8]: higher inhibition
- inhibition at 1 µM [9, 15]: 16 ± 3%
- inhibition at 1 µM [9, 16]: 45 ± 3%
- inhibition at 1 µM [9, 17]: 95 ± 5%
- inhibition at 1 µM [9, 18]: 19 ± 4%
- inhibition at 1 µM [9, 19]: 46 ± 4%
- inhibition at 1 µM [9, 20]: 95 ± 3%
- inhibition at 1 µM [10, 15]: 16 ± 3%
- inhibition at 1 µM [10, 16]: 46 ± 4%
- inhibition at 1 µM [10, 17]: 90 ± 6%
- inhibition at 1 µM [10, 18]: 16 ± 4%
- inhibition at 1 µM [10, 19]: 47 ± 3%
- inhibition at 1 µM [10, 20]: 90 ± 6%
- inhibition at 1 µM [11, 15]: 13 ± 4%
- inhibition at 1 µM [11, 16]: 46 ± 4%
- inhibition at 1 µM [11, 17]: 93 ± 6%
- inhibition at 1 µM [11, 18]: 17 ± 2%
- inhibition at 1 µM [11, 19]: 48 ± 4%
- inhibition at 1 µM [11, 20]: 93 ± 5%
- inhibition at 1 µM [12, 15]: 14 ± 3%
- inhibition at 1 µM [12, 16]: 46 ± 3%
- inhibition at 1 µM [12, 17]: 92 ± 5%
- inhibition at 1 µM [12, 18]: 16 ± 4%
- inhibition at 1 µM [12, 19]: 48 ± 3%
- inhibition at 1 µM [12, 20]: 92 ± 4%
- Percentage of inhibition of cell cultures ([13]; Cases with Kras mutated): 24±6 percentage
- Percentage of inhibition of cell cultures [13, 21]: 95±4 percentage
- Percentage of inhibition of cell cultures ([14]; Cases with Kras mutated): 24±4 percentage
- Percentage of inhibition of cell cultures [14, 21]: 96±4 percentage
